Results: PubChem BioAssay (NCI)
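The compound was tested at five concentrations on cells cultured in 96-well plates, with a 48-hour exposure period. GI50: concentration for 50% inhibition of growth. Definition used: TGI = concentration required for complete inhibition of growth.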 *1 amine or outer side, *2 acyl side, *3 side chain or, on linkers, in order; H or OH if unused. Where a SMILES comes first, the peptide text is derived from it. [ ]: non-standard residue; d: D form. The star is where a group is joined. X11 = C/C=C/CC(C)C(O)[C@H](N[*:1])C(=O)[*:2]; Decanoyl = CCCCCCCCCC(=O)*; Leu(ol) = CC(C)C[C@H](N)CO; Iva = CC[C@](C)(N)C(=O)O; Aib = CC(C)(N)C(=O)O

How the values were obtained:
Test in all cases: DTP human tumour cell line panel, 48 h
786-0 renal = tested on: 786-0 renal
A498 renal = tested on: A498 renal
A549 NSCLC = tested on: A549 NSCLC
ACHN renal = tested on: ACHN renal
BT-549 breast = tested on: BT-549 breast
CAKI-1 renal = tested on: CAKI-1 renal
CCRF-CEM leukemia = tested on: CCRF-CEM leukemia
COLO 205 colon = tested on: COLO 205 colon
DU-145 prostate = tested on: DU-145 prostate
EKVX NSCLC = tested on: EKVX NSCLC
HCC-2998 colon = tested on: HCC-2998 colon
HCT-116 colon = tested on: HCT-116 colon
HCT-15 colon = tested on: HCT-15 colon
HL-60(TB) leukemia = tested on: HL-60(TB) leukemia
HOP-62 NSCLC = tested on: HOP-62 NSCLC
HOP-92 NSCLC = tested on: HOP-92 NSCLC
HS 578T breast = tested on: HS 578T breast
HT29 colon = tested on: HT29 colon
IGROV1 ovarian = tested on: IGROV1 ovarian
K-562 leukemia = tested on: K-562 leukemia
KM12 colon = tested on: KM12 colon
LOX IMVI melanoma = tested on: LOX IMVI melanoma
M14 melanoma = tested on: M14 melanoma
MALME-3M melanoma = tested on: MALME-3M melanoma
MCF7 breast = tested on: MCF7 breast
MDA-MB-231 breast = tested on: MDA-MB-231 breast
MDA-MB-435 = tested on: MDA-MB-435
MOLT-4 leukemia = tested on: MOLT-4 leukemia
NCI-H226 lung = tested on: NCI-H226 lung
NCI-H23 lung = tested on: NCI-H23 lung
NCI-H460 lung = tested on: NCI-H460 lung
NCI-H522 lung = tested on: NCI-H522 lung
NCI/ADR-RES ovarian = tested on: NCI/ADR-RES ovarian
OVCAR-3 ovarian = tested on: OVCAR-3 ovarian
OVCAR-4 ovarian = tested on: OVCAR-4 ovarian
OVCAR-5 ovarian = tested on: OVCAR-5 ovarian
OVCAR-8 ovarian = tested on: OVCAR-8 ovarian
PC-3 prostate = tested on: PC-3 prostate
RPMI-8226 leukemia = tested on: RPMI-8226 leukemia
RXF 393 renal = tested on: RXF 393 renal
SF-268 CNS = tested on: SF-268 CNS
SF-295 CNS = tested on: SF-295 CNS
SF-539 CNS = tested on: SF-539 CNS
SK-MEL-2 melanoma = tested on: SK-MEL-2 melanoma
SK-MEL-28 melanoma = tested on: SK-MEL-28 melanoma
SK-MEL-5 melanoma = tested on: SK-MEL-5 melanoma
SK-OV-3 ovarian = tested on: SK-OV-3 ovarian
SN12C renal = tested on: SN12C renal
SNB-19 CNS = tested on: SNB-19 CNS
SNB-75 CNS = tested on: SNB-75 CNS
SR leukemia = tested on: SR leukemia
SW-620 colon = tested on: SW-620 colon
T-47D breast = tested on: T-47D breast
TK-10 renal = tested on: TK-10 renal
U251 CNS = tested on: U251 CNS
UACC-257 melanoma = tested on: UACC-257 melanoma
UACC-62 melanoma = tested on: UACC-62 melanoma
UO-31 renal = tested on: UO-31 renal

C/C=C/CC(C)C(O)[C@H](NC(=O)[C@@H]1CCCN1C(=O)[C@](C)(CC)NC(=O)CCCCCCCCC)C(=O)N[C@@](C)(CC)C(=O)N[C@@H](CCC(N)=O)C(=O)N[C@H](CCC(N)=O)C(=O)NC(C)(C)C(=O)NC(C)(C)C(=O)N[C@@H](CCC(N)=O)C(=O)N[C@H](CC(C)C)C(=O)N[C@H](CO)CC(C)C (stereo partly drawn) (Decanoyl-[Iva]P[X11][Iva]Q[dQ][Aib][Aib]Q[dL][Leu(ol)])
GI50 (786-0 renal): 1810 nM | TGI (786-0 renal): 3430 nM | GI50 (A498 renal): 1900 nM | TGI (A498 renal): 3440 nM | GI50 (A549 NSCLC): 1910 nM | TGI (A549 NSCLC): 3920 nM | GI50 (ACHN renal): 1800 nM | TGI (ACHN renal): 3290 nM | GI50 (BT-549 breast): 1800 nM | TGI (BT-549 breast): 3360 nM | GI50 (CAKI-1 renal): 1690 nM | TGI (CAKI-1 renal): 3110 nM | GI50 (CCRF-CEM leukemia): 1860 nM | TGI (CCRF-CEM leukemia): 3650 nM | GI50 (COLO 205 colon): 1960 nM | TGI (COLO 205 colon): 3810 nM | GI50 (DU-145 prostate): 1790 nM | TGI (DU-145 prostate): 3180 nM | GI50 (EKVX NSCLC): 1740 nM | TGI (EKVX NSCLC): 3290 nM | GI50 (HCC-2998 colon): 1780 nM | TGI (HCC-2998 colon): 3420 nM | GI50 (HCT-116 colon): 1890 nM | TGI (HCT-116 colon): 3570 nM | GI50 (HCT-15 colon): 1860 nM | TGI (HCT-15 colon): 3670 nM | GI50 (HL-60(TB) leukemia): 1740 nM | TGI (HL-60(TB) leukemia): 3390 nM | GI50 (HOP-62 NSCLC): 1630 nM | TGI (HOP-62 NSCLC): 3270 nM | GI50 (HOP-92 NSCLC): 1620 nM | TGI (HOP-92 NSCLC): 3250 nM | GI50 (HS 578T breast): 1800 nM | TGI (HS 578T breast): 3480 nM | GI50 (HT29 colon): 1880 nM | TGI (HT29 colon): 3720 nM | GI50 (IGROV1 ovarian): 1790 nM | TGI (IGROV1 ovarian): 3390 nM | GI50 (K-562 leukemia): 1950 nM | TGI (K-562 leukemia): 3970 nM | GI50 (KM12 colon): 1870 nM | TGI (KM12 colon): 3570 nM | GI50 (LOX IMVI melanoma): 1740 nM | TGI (LOX IMVI melanoma): 3260 nM | GI50 (M14 melanoma): 1800 nM | TGI (M14 melanoma): 3370 nM | GI50 (MALME-3M melanoma): 1520 nM | TGI (MALME-3M melanoma): 2920 nM | GI50 (MCF7 breast): 1770 nM | TGI (MCF7 breast): 3520 nM | GI50 (MDA-MB-231 breast): 1780 nM | TGI (MDA-MB-231 breast): 3250 nM | GI50 (MDA-MB-435): 1770 nM | TGI (MDA-MB-435): 3170 nM | GI50 (MOLT-4 leukemia): 1930 nM | TGI (MOLT-4 leukemia): 3640 nM | GI50 (NCI-H226 lung): 1780 nM | TGI (NCI-H226 lung): 3830 nM | GI50 (NCI-H23 lung): 1800 nM | TGI (NCI-H23 lung): 3420 nM | GI50 (NCI-H460 lung): 1840 nM | TGI (NCI-H460 lung): 3380 nM | GI50 (NCI-H522 lung): 1770 nM | TGI (NCI-H522 lung): 3370 nM | GI50 (NCI/ADR-RES ovarian): 1810 nM | TGI (NCI/ADR-RES ovarian): 3480 nM | GI50 (OVCAR-3 ovarian): 1880 nM | TGI (OVCAR-3 ovarian): 3440 nM | GI50 (OVCAR-4 ovarian): 2150 nM | TGI (OVCAR-4 ovarian): 4800 nM | GI50 (OVCAR-5 ovarian): 1680 nM | TGI (OVCAR-5 ovarian): 3070 nM | GI50 (OVCAR-8 ovarian): 2040 nM | TGI (OVCAR-8 ovarian): 4240 nM | GI50 (PC-3 prostate): 1760 nM | TGI (PC-3 prostate): 3260 nM | GI50 (RPMI-8226 leukemia): 2020 nM | TGI (RPMI-8226 leukemia): 4320 nM | GI50 (RXF 393 renal): 2020 nM | TGI (RXF 393 renal): 3640 nM | GI50 (SF-268 CNS): 1830 nM | TGI (SF-268 CNS): 3450 nM | GI50 (SF-295 CNS): 1740 nM | TGI (SF-295 CNS): 3300 nM | GI50 (SF-539 CNS): 1750 nM | TGI (SF-539 CNS): 3150 nM | GI50 (SK-MEL-2 melanoma): 1770 nM | TGI (SK-MEL-2 melanoma): 3350 nM | GI50 (SK-MEL-28 melanoma): 1700 nM | TGI (SK-MEL-28 melanoma): 3090 nM | GI50 (SK-MEL-5 melanoma): 1780 nM | TGI (SK-MEL-5 melanoma): 3250 nM | GI50 (SK-OV-3 ovarian): 1930 nM | TGI (SK-OV-3 ovarian): 3950 nM | GI50 (SN12C renal): 1670 nM | TGI (SN12C renal): 3220 nM | GI50 (SNB-19 CNS): 1740 nM | TGI (SNB-19 CNS): 3180 nM | GI50 (SNB-75 CNS): 1400 nM | TGI (SNB-75 CNS): 2800 nM | GI50 (SR leukemia): 1610 nM | TGI (SR leukemia): 3430 nM | GI50 (SW-620 colon): 1900 nM | TGI (SW-620 colon): 3590 nM | GI50 (T-47D breast): 1590 nM | TGI (T-47D breast): 3400 nM | GI50 (TK-10 renal): 1750 nM | TGI (TK-10 renal): 3270 nM | GI50 (U251 CNS): 1770 nM | TGI (U251 CNS): 3350 nM | GI50 (UACC-257 melanoma): 1740 nM | TGI (UACC-257 melanoma): 3260 nM | GI50 (UACC-62 melanoma): 1660 nM | TGI (UACC-62 melanoma): 3050 nM | GI50 (UO-31 renal): 1540 nM | TGI (UO-31 renal): 2910 nM
